What all share (format): cell-based, human
The subject of experiment [1] is CRC cell lines. Put plainly: Alu methylation by quantitative bisulfite pyrosequencing in CRC cell lines treated with demethylating agent. The settings on record: for methylation status of global Alu repetitive element: 2.5 μM 5-aza-dC for 72 hours, pyrosequencing (FIG. 3). As to the method: (§1) Cell lines and 5-aza-2-deoxy-cytidine treatment. Seven CRC cell lines, HCT116, RKO, SW48, Caco-2, HT29, SW480, and SW620 were obtained from the American Type Culture Collection (ATCC, Rockville, Md.). Cell lines were treated with 2.5 μM 5-Aza-2′-deoxycytidine (5-aza-dC; Sigma-Aldrich) for 72 hours, and fresh medium containing 5-aza-dC was replaced every 24 hours.
DNA methylation analysis. Methylation levels of repetitive sequences (global Alu and local Alu) were analyzed by quantitative bisulfite pyrosequencing using the PSQ HS 96A pyrosequencing system (Qiagen) following bisulfite modification of genomic DNA using EZ DNA methylation Gold Kits (Zymo Research), as described previously.
(§2) Additional materials and methods. CRC Cell line: CACO2, HCT116, RKO, SW48, SW480, and SW620. Tissue specimens: A total of 59 formalin-fixed, paraffin-embedded (FFPE) primary CRC tissues and corresponding liver metastasis tissues were analyzed. 5-Aza-2′-deoxycytidine (5-aza-dC) treatment: CRC cell lines were treated with 2.5 μM 5-aza-dC for 72 hours. α-amanitin treatment: CRC cell lines were treated with 50 μg/ml α-amanitin, a RNA pol II inhibitor, for 7 hours. Methylation analysis: Methylation levels were analyzed by bisulfite pyrosequencing for quantitative methylation analysis using PSQ HS 96A pyrosequencing system (Qiagen) on bisulfite modified genomic DNA template. microRNAs expression analysis: Expression of miR-373 and miR-520c was analyzed using TaqMan miRNA assays.

Experiment [2] deals with CRC cell lines. The experiment in a line: miRNA expression (TaqMan miRNA assays) in CRC cell lines treated with demethylating agent. As to the method:
as §1
miRNA expression analysis. Expression of fourteen metastasis-related miRNAs (let-7i, miR-10b, miR-30b, miR-34a, miR-141, miR-200b, miR-200c, miR-203, miR-221, miR-320a, miR-373, miR-429, miR-518d, and miR-520c) was analyzed using TaqMan miRNA assays (Applied Biosystems Inc., Foster City, Calif.). Expression of RNU6B (Applied Biosystems Inc., Foster City, Calif.) and miR-16 were used as endogenous controls for cell lines and FFPE tissues, respectively.
Additional materials and methods. CRC Cell line: CACO2, HCT116, RKO, SW48, SW480, and SW620. Tissue specimens: A total of 59 formalin-fixed, paraffin-embedded (FFPE) primary CRC tissues and corresponding liver metastasis tissues were analyzed. […] Methylation analysis: Methylation levels were analyzed by bisulfite pyrosequencing for quantitative methylation analysis using PSQ HS 96A pyrosequencing system (Qiagen) on bisulfite modified genomic DNA template. microRNAs expression analysis: Expression of miR-373 and miR-520c was analyzed using TaqMan miRNA assays.
Background: Quantitative PCR measures a nucleic acid by following its amplification.

The subject of experiment [3] is CRC cell lines. The experiment in a line: miRNA expression (TaqMan miRNA assays) in CRC cell lines treated with RNA pol II inhibitor. The settings on record: 50 μg/ml α-amanitin for 7 hours (FIG. 9). Here is the method:
as §2

For the compound `Nc1ncn([C@H]2C[C@H](O)[C@@H](CO)O2)c(=O)n1` [5-aza, 5-Aza-2′-deoxycytidine], the “methylation status of global Alu repetitive element” value in the experiment with CRC cell lines [1] was “markedly demethylated”; with CRC cell lines [1] (listed as 5-azacytidine), “Global hypomethylation of Alu sequences was observed”. The “methylation of Alu element in miR-373 promoter region” value in the experiment on CRC cell lines [1] (5Aza treatment) is on record as “demethylated”. In addition, in the experiment on CRC cell lines [2] (demethylating agent treatment), the “expression of miR-373” value is “induced”. The “expression of miR-520c” value in the experiment on CRC cell lines [2] (demethylating agent treatment (FIG. 6B)) is listed as “induced”.
Regarding `CC[C@H](C)[C@@H]1NC(=O)CNC(=O)[C@@H]2Cc3c([nH]c4cc(O)ccc34)[S+]([O-])C[C@@H](NC(=O)CNC1=O)C(=O)N[C@@H](CC(N)=O)C(=O)N1C[C@H](O)C[C@H]1C(=O)N[C@@H]([C@@H](C)[C@@H](O)CO)C(=O)N2` (stereo in doubt) [RNA pol II inhibitor, α-amanitin], the “expression of miR-520c” value with CRC cell lines [3] is recorded as “inhibited the expression”. The “miR-373 transcription / activation” value with CRC cell lines [3] is “did not suppress activation”; with CRC cell lines [3] (listed as RNA polymerase II inhibitor), “did not suppress”.

Values taken from patent US10519506B2, “Identification of metastasis-specific miRNA and hypomethylation signatures in human colorectal cancer” (Baylor Research Institute, priority 2011, dated 2019).
